Results on 14 compounds are retold here after patent US20100267774A1, “P38 MAP KINASE INHIBITORS” (CHROMA THERAPEUTICS LTD., priority 2007, published 2010).

Assay [1] has as its system phosphorylation of MAPKAP-2 in U937 cells. Description: Cellular assay for the phosphorylation of MAPKAP-2 by p38 in U937 cells. The assay is classed as cell-based. As to conditions: Homo sapiens, U-937; macrophage cell line U937; anisomycin 10 μM; read-out: Inhibition of phosphorylation of MAPKAP-2 in U937 cells (IC50). The method, then:
U937 or HUT78 cells were plated in RPMI 1640, and were incubated at 37° C., 5% CO2 for 18 hours. 10 mM stocks of compounds were diluted media/0.1% DMSO to give a log or semi-log dilution series. The wells for ‘no treatment’ and ‘anisomycin’ were treated with 0.1% DMSO only. The cells were incubated at 37° C., 5% CO2 for a further 4 hours. Anisomycin was added to all wells except ‘no treatment’ at a final concentration of 10 μM. The cells were incubated at 37° C., 5% CO2 for 30 minutes before harvest. Plates were stood on ice whilst harvesting, and all the following steps were carried out at 4° C. The cells were pelleted at 1000 rpm for 10 minutes at 4° C., the media aspirated, and the pellet washed with cold PBS. The pellets were lysed in 120 μl of SDS lysis buffer (62.5 mM Tris, pH 6.8, 2% SDS, 10% glycerol, 50 mM DTT, with protease inhibitors and phosphatase inhibitors added according to the manufacturers' recommendations). […]
In cells, p38 activity leads to the phosphorylation of the protein MAPKAP-2 and thus one method to assess the inhibition of p38 inside cells is to look at the decrease in the levels of phosphorylated MAPKAP-2. Table 1 lists the IC50s as measured by the level of MAPKAP-2 phosphorylation in a macrophage cell line (U937) and non-macrophage cell line (HUT78). […]

The test system of assay [2] is phosphorylation of MAPKAP-2 in HUT 78 cells. As to the kind of experiment: Cellular assay for the phosphorylation of MAPKAP-2 by p38 in HUT 78 cells. The assay is classed as cell-based. As to conditions: for IC50: Homo sapiens, HuT78, non-macrophage cell line HUT 78, anisomycin 10 μM, read-out: Inhibition of phosphorylation of MAPKAP-2 in HUT 78 cells (IC50); for Ratio IC50s in HUT 78 to U937 cells: macrophage selectivity. The method, then: U937 or HUT78 cells were plated in RPMI 1640, and were incubated at 37° C., 5% CO2 for 18 hours. 10 mM stocks of compounds were diluted media/0.1% DMSO to give a log or semi-log dilution series. The wells for ‘no treatment’ and ‘anisomycin’ were treated with 0.1% DMSO only. The cells were incubated at 37° C., 5% CO2 for a further 4 hours. Anisomycin was added to all wells except ‘no treatment’ at a final concentration of 10 μM. The cells were incubated at 37° C., 5% CO2 for 30 minutes before harvest. Plates were stood on ice whilst harvesting, and all the following steps were carried out at 4° C. The cells were pelleted at 1000 rpm for 10 minutes at 4° C., the media aspirated, and the pellet washed with cold PBS. The pellets were lysed in 120 μl of SDS lysis buffer (62.5 mM Tris, pH 6.8, 2% SDS, 10% glycerol, 50 mM DTT, with protease inhibitors and phosphatase inhibitors added according to the manufacturers' recommendations). After 30 minutes on ice, the samples were sonicated for 5 seconds before centrifugation at 13,000 rpm 4° C. for 10 minutes to remove cell debris. 10 μl of the resulting gel samples were loaded per lane on NOVEX 4-12% Bis-Tris MOPS gels. Membranes from western transfer of gels were blotted with anti-phospho MAPKAP-2, anti-phospho HSP27 and anti-GAPDH according to the manufacturers' instructions. Signal was visualised using HRP-linked anti-rabbit or anti-mouse antibodies, ECL reagent and ECL film. IC50 values for the various compounds were visualised from the resulting photographic images, using both band-shift and signal intensity.
In cells, p38 activity leads to the phosphorylation of the protein MAPKAP-2 and thus one method to assess the inhibition of p38 inside cells is to look at the decrease in the levels of phosphorylated MAPKAP-2. Table 1 lists the IC50s as measured by the level of MAPKAP-2 phosphorylation in a macrophage cell line (U937) and non-macrophage cell line (HUT78). […] In contrast, example 33 that has an esterase motif that would be expected to confer macrophage selectivity, has an activity in the macrophage cell line (U937) which is 100 fold greater than in the non-macrophage cell line (HUT 78).

Assay [3] concerns the target T1, p38 MAP Kinase a (Homo sapiens, UniProt Q16539).
T1 construct: purchased Upstate (Dundee UK)
As to the kind of experiment: p38 MAP Kinase activity, radiometric filter-binding assay (Upstate). The assay is classed as biochemical.

Assay [4] has as its system THP-1 TNFα release. As to the kind of experiment: LPS-stimulation of THP-1 cells, TNF-α release by ELISA. The assay is classed as cell-based. As to conditions: Homo sapiens, THP-1, 6 h; read-out: Inhibitor activity versus THP-1 TNFα release. The method, then: THP-1 cells were plated in 100 μl at a density of 4×10^4 cells/well in V-bottomed 96 well tissue culture treated plates and incubated at 37° C. in 5% CO2 for 16 hrs. 2 hrs after the addition of the inhibitor in 100 μl of tissue culture media, the cells were stimulated with LPS (E coli strain 005:B5, Sigma) at a final concentration of 1 μg/ml and incubated at 37° C. in 5% CO2 for 6 hrs. TNF-α levels were measured from cell-free supernatants by sandwich ELISA (R&D Systems #QTA00B).
In general terms: An ELISA detects its analyte on a solid surface through an enzyme-linked reagent.

Where [5] appears, read: compound as such (Example 33: Ester), read-out: Inhibition of P38α (IC50 nM).
The mark [6] stands for this setting: IC50 range, read-out: Inhibitor activity versus p38 MAPKa.

Where two headings read alike, the source gives them in different places.

T1 sequence (Q16539 whole entry): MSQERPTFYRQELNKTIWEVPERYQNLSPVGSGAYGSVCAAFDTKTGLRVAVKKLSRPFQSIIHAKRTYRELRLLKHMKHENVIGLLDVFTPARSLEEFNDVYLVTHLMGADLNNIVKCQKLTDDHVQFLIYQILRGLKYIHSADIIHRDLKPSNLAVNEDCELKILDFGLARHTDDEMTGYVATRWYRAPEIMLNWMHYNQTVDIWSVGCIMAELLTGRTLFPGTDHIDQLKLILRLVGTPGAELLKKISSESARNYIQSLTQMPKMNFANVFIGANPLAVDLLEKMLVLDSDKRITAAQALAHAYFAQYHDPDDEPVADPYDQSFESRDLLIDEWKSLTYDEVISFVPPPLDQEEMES

For the compound `Nc1c(C(=O)c2ccc(F)cc2F)ccc(=O)n1-c1c(F)cccc1F` [Compound I, reference compound], the IC50 stood at 0.009 µM in assay [1], 0.01 µM in assay [2] and 47 nM in assay [3] (setting [5]). Further, the “Ratio IC50s in HUT 78 to U937 cells” value in assay [2] (MAPKAP-2 phosphorylation) came out at 1.1.

As to `CC(C)C[C@H](NCCc1cc(F)c(-n2c(N)c(C(=O)c3ccc(F)cc3F)ccc2=O)c(F)c1)C(=O)OC1CCCC1` [Example 33, cyclopentyl N-(2-{4-[6-amino-5-(2,4-difluorobenzoyl)-2-oxopyridin-1(2H)-yl]-3,5-difluorophenyl}ethyl)-L-leucinate], the IC50 is under 0.1 µM in assay [4]; 0.0007 µM in assay [1]; 0.073 µM in assay [2]; 0.5 nM in assay [3] (Acid (carboxylic acid of the ester), read-out: Inhibition of P38α (IC50 nM)); 100 to 1000 nM in assay [3] (setting [6]); 100 nM in assay [3] (setting [5]). Also, the “activity in the macrophage cell line (U937) greater than in the non-macrophage cell line (HUT 78)” value in assay [2] (MAPKAP-2 phosphorylation) was 100 fold. Further, in assay [2] (MAPKAP-2 phosphorylation), the “Ratio IC50s in HUT 78 to U937 cells” value was 112.

Take `CC(C)[C@H](NCCc1ccc(-n2c(N)c(C(=O)c3ccc(F)cc3F)ccc2=O)cc1)C(=O)OC(C)(C)C` [Example 6, tert-butyl N-[2-(4-{6-amino-5-[(2,4-difluorophenyl)carbonyl]-2-oxopyridin-1(2H)-yl}phenyl)ethyl]-L-valinate]: the IC50 in assay [4] is 0.1 to 1 µM; in assay [3] (setting [6]) it was 100 to 1000 nM.

As for `CC(C)[C@H](NCCc1cc(F)c(-n2c(N)c(C(=O)c3ccc(F)cc3F)ccc2=O)c(F)c1)C(=O)OC1CCCC1` [Example 43, Cyclopentyl N-[2-(4-{6-amino-5-[(2,4-difluorophenyl)carbonyl]-2-oxopyridin-1(2H)-yl}-3,5 difluorophenyl)ethyl]-L-valinate], the results for the IC50 in assay [4] and in assay [3] (setting [6]) were under 0.1 µM and under 100 nM, respectively.

As to `COc1ccc([C@H](NCCc2cc(F)c(-n3c(N)c(C(=O)c4ccc(F)cc4F)ccc3=O)c(F)c2)C(=O)OC2CCCC2)cc1` [Example 46, Cyclopentyl (2S)-{[2-(4-{6-amino-5-[(2,4-difluorophenyl)carbonyl]-2-oxopyridin-1(2H)-yl}-3,5-difluorophenyl)ethyl]amino}(4-methoxyphenyl)ethanoate], the IC50 in assay [4] was under 0.1 µM; in assay [3] (setting [6]) it was under 100 nM.

As to `CC(C)(C)OC[C@H](NCCc1ccc(-n2c(N)c(C(=O)c3ccc(F)cc3F)ccc2=O)cc1)C(=O)OC1CCCC1` [Example 11, Cyclopentyl N-[2-(4-{6-amino-5-[(2,4-difluorophenyl)carbonyl]-2-oxopyridin-1(2H)-yl}phenyl)ethyl]-O-tert-butyl-L-serinate], the IC50 was under 0.1 µM in assay [4] and 100 to 1000 nM in assay [3] (setting [6]).

As for `CC(C)(C)OC[C@H](NCCc1ccc(-n2c(N)c(C(=O)c3ccc(F)cc3F)ccc2=O)cc1)C(=O)OC(C)(C)C` [Example 12, tert-butyl N-[2-(4-{6-amino-5-[(2,4-difluorophenyl)carbonyl]-2-oxopyridin-1(2H)-yl}phenyl)ethyl]-O-tert-butyl-L-serinate], the IC50 is over 1 µM in assay [4] and 100 to 1000 nM in assay [3] (setting [6]).

Turning to `Nc1c(C(=O)c2ccc(F)cc2F)ccc(=O)n1-c1c(F)cc(CCN[C@H](C(=O)OC2CCCC2)C2CCCCC2)cc1F` [Example 36, Cyclopentyl (2S)-[(2-{4-[6-amino-5-(2,4-difluorobenzoyl)-2-oxopyridin-1(2H)-yl]-3,5-difluorophenyl}ethyl)amino](cyclohexyl)acetate], the IC50 was under 0.1 µM in assay [4] and 100 to 1000 nM in assay [3] (setting [6]).

With `C[C@@H](O)[C@H](NCCc1ccc(-n2c(N)c(C(=O)c3ccc(F)cc3F)ccc2=O)cc1)C(=O)OC1CCCC1` [Example 17, Cyclopentyl N-[2-(4-{6-amino-5-[(2,4-difluorophenyl)carbonyl]-2-oxopyridin-1(2H)-yl}phenyl)ethyl]-L-threoninate], the IC50 is under 0.1 µM in assay [4] and under 100 nM in assay [3] (setting [6]).

With `CC(C)(C)OC[C@H](NCCc1cc(F)c(-n2c(N)c(C(=O)c3ccc(F)cc3)ccc2=O)c(F)c1)C(=O)OC1CCCC1` [Example 31, Cyclopentyl N-(2-{4-[6-amino-5-(4-fluorobenzoyl)-2-oxopyridin-1(2H)-yl]-3,5-difluorophenyl}ethyl)-O-tert-butyl-L-serinate], the IC50 is under 0.1 µM in assay [4] and 100 to 1000 nM in assay [3] (setting [6]).

As for `CC(C)(C)OC[C@H](NCCc1cc(F)c(-n2c(N)c(C(=O)c3ccc(F)cc3F)ccc2=O)c(F)c1)C(=O)OC1CCCC1` [Example 40, Cyclopentyl N-(2-{4-[6-amino-5-(2,4-difluorobenzoyl)-2-oxopyridin-1(2H)-yl]-3,5-difluorophenyl}ethyl)-O-tert-butyl-L-serinate], the IC50 is under 0.1 µM in assay [4] and under 100 nM in assay [3] (setting [6]).

As to `CC(C)(C)[C@H](NCCc1ccc(-n2c(N)c(C(=O)c3ccc(F)cc3F)ccc2=O)cc1)C(=O)OC1CCCC1` [Example 7, Cyclopentyl N-[2-(4-{6-amino-5-[(2,4-difluorophenyl)carbonyl]-2-oxopyridin-1(2H)-yl}phenyl)ethyl]-3-methyl-L-valinate], the IC50 in assay [4] was over 1 µM; in assay [3] (setting [6]), 100 to 1000 nM.

Turning to `C[C@@H](O)[C@H](NCCc1cc(F)c(-n2c(N)c(C(=O)c3ccc(F)cc3F)ccc2=O)c(F)c1)C(=O)OC1CCCC1` [Example 45, Cyclopentyl N-[2-(4-{6-amino-5-[(2,4-difluorophenyl)carbonyl]-2-oxopyridin-1(2H)-yl}-3,5-difluorophenyl)ethyl]-L-threoninate], the figures for the IC50 in assay [4] and in assay [3] (setting [6]) were under 0.1 µM and under 100 nM, respectively.

For the compound `Nc1c(C(=O)c2ccc(F)cc2F)ccc(=O)n1-c1ccc(CCN[C@@H](Cc2ccccc2)C(=O)OC2CCCC2)cc1` [Example 22, Cyclopentyl N-[2-(4-{6-amino-5-[(2,4-difluorophenyl)carbonyl]-2-oxopyridin-1(2H)-yl}phenyl)ethyl]-L-phenylalaninate], the IC50 was under 0.1 µM in assay [4] and 100 to 1000 nM in assay [3] (setting [6]).
